Results as given in patent US20080242594A1, “Methods for Promoting Stem Cell Proliferation and Survival” (priority 2005, published 2008).

Experiments:
p38 MAP kinase = p38 MAP kinase phosphorylation immunoblot in CNS stem cells; format: cell-based, mouse
Text: A candidate was p38MAP kinase, known to act downstream of JAK in many cells including CNS stem cells. p38 kinase has been implicated both in differentiation and cell cycle regulation, and recently, inhibition of p38 kinase enabled the proliferation of adult mammalian […] (Engel et al., Genes Dev, 2005). Inhibition of JAK blocked CNTF induced phosphorylation of p38 (FIG. 2g).

H1 hES cells = test: hES colony number formation, H1; format: cell-based, human; conditions: H1 line
Text: The human ES cell lines HSF-6 (University of California, San Francisco; NIH # UC06, Passage 38-120) and H1 and H9 (WiCell Research Institute, NIH # WA01 and […]) were maintained on mouse embryonic fibroblasts (MEF) according to the suppliers' protocols. Immunocytochemistry and FACS analysis for the expression of Oct4 and SSEA4 and SKY karyotyping established that the starting cells are undifferentiated and have a normal set of chromosomes. For single cell survival experiments, hES colonies were harvested after treatment with 1.5 mg/ml collagenase type IV (Invitrogen), separated from the MEF feeder cells by repeated washing by gravity, gently triturated to break up colonies into small aggregates, further dissociated into a single cell solution by trypsination (0.05% trypsin/0.04% EDTA) and transferred on MEF feeder cells at a density of 10000 cells/ml. Oct-4 positive colonies were counted six days after plating. […]
The pro-survival effects of activation of Notch and inhibition of JAK was tested on HSF-6 (NIH code UC06, http://escell.ucsf.edu), H1 (NIH code WA01, www.wicell.org) and H9 (NIH code WA09, www.wicell.org) hES cells. Singly dissociated hES cells were plated on mouse embryo fibroblasts (MEFs), treated daily for one week and colony numbers counted. […]

HSF6 hES cells = test: hES self-renewal over 3 passages; format: cell-based, human; conditions: 3 passages (3 weeks), daily treatments
Text: To assess whether JAK inhibition was consistent with self-renewal of hES cells, HSF6 cells were continuously exposed to the JAK inhibitor by daily additions for three passages as single cells (three weeks) and analyzed for expression of antigens that distinguish the undifferentiated and differentiated states. The cells exposed to the drug, like the FGF2 controls, had normal morphology, were positive for Oct3/4, SSEA4, Tra-1-60, and Tra-1-81, and negative for SSEA1 (FIG. 5f, FIG. 11). To assess their ability to differentiate into neural precursors, embryoid bodies (EBs) were generated and many Sox1+/Nestin+ cells obtained (FIG. 11). Finally, to assess that the cells retained their ability to generate TH+ neurons, direct differentiation protocols were performed; a high proportion of TH+/TUJ1+ cells were obtained (FIG. 5g).

[1] = tested on: p38, SMAD1/5/8, MSK-1, STAT3 phosphorylation in hES cells; test: Signalling immunoblots in hES cells; conditions: absence of MEF, within one hour
Description: Immunoblotting: Immunoblotting was performed as previously described (Panchision et al., Genes Dev 15:2094-110, 2001). The following antibodies were used in the experiments described below: pSer473-Akt (92715), pSer308-Akt (9275), pSer2448-mTOR (29715), pThr180/Tyr182-p38 (9211), pSMAD1/5/8 (9511) from Cell Signaling; STAT3 (482), pSer727-STAT3 (8001-R), pTyr705-STAT3 (7993) from Santa Cruz; Sonic Hedgehog (R&D, AF464), nucleostemin (McKay Lab), Hes3 (Chemicon, AB5706), α-tubulin (Sigma, T-6074).
To determine whether in the hES system JAK inhibition reduced p38 activity, cells were treated in the absence of MEF with JAK inhibitor for different times and assayed for p38 phosphorylation.

nucleostemin, SHH = test: Nucleostemin and SHH protein expression in CNS stem cells; format: cell-based, mouse
Text: The interest in stem cell self-renewal mechanisms prompted analysis of potential down-stream components of the Notch/STAT3-Ser727 (Notch/sSTAT) pathway. Nucleostemin is a p53-binding protein expressed in self-renewing CNS stem cells and cancer cells (Tsai et al., J Neurosci 20:3725-35, 2000; Tsai et al., J Cell Biol 168:179-84, 2005). Sonic Hedgehog (SHH) is a protein with functions in fate specification and stem cell survival in the fetal and adult CNS (Palma et al., Development 132:335-44, 2005).
There are two forms of mRNA encoded by the Hes3 gene, Hes3a and Hes3b.

[2] = tested on: mouse fetal central nervous system stem cell cultures; test: Survival of fetal CNS stem cell cultures with insulin and Dll4; format: cell-based
Description: (§1) As there was a tight correlation between the Notch survival pathway and Hes3, it was investigated as to whether Hes3 is a mediator of the Notch pro-survival signalling. It was determined that both insulin and Notch activation promote the survival of foetal and adult neural stem cell cultures and their effects are additive (Tables 8-9).

[3] = tested on: rat adult subventricular zone central nervous system stem cell cultures; test: Survival of adult SVZ CNS stem cell cultures with insulin and Dll4; format: cell-based
Description: as §1

[4] = tested on: cultures from Hes3 knock-out mice; test: Survival of adult SVZ stem cell cultures, Hes3 knock-out mice; format: cell-based, mouse; conditions: Hes3 knock-out culture
Description: It was determined that adult mouse subventricular zone central nervous system stem cell cultures from wild-type mice respond to D114 by generating twenty-four times more cells, whereas cultures from Hes3 knock-out mice respond to D114 by generating only three times more cells. Thus, in adult mouse neural stem cell cultures, D114 greatly promotes the survival of wild-type cells (23.7±1.7 fold increase), whereas it only slightly stimulates Hes3 knock-out culture survival (2.9±0.2 fold increase).

[5] = tested on: Primary human central nervous system neural stem cell from pediatric subventricular zones; test: Colony generation of primary human neural stem cells; format: cell-based; conditions: expanded in FGF2
Text: Pharmacological Notch activation is beneficial also to primary neural stem cell cultures from non-cancerous human brain. Primary human central nervous system neural stem cell were produced from pediatric subventricular zones. These cells expanded in FGF2, and upon FGF2 withdrawal differentiated to produce colonies containing neurons, astrocytes, and oligodendrocytes (see Table 11). […] FGF2 withdrawal and subsequent differentiation of central nervous system neural stem cell cultures (fetal mouse) regulated Hes3 expression and STAT3 expression and phosphorylation in neurons, astrocytes, oligodendrocytes.

| Compound | phosphorylation of p38 MAP kinase at Thr180/Tyr182 (p38 MAP kinase) | colony number formation (H1 hES cells) | morphology and antigenic profile (HSF6 hES cells) | p38 phosphorylation [1] | nucleostemin and SHH protein expression (nucleostemin, SHH) | Cell # [2] | Cell # [3] | survival, fold increase in cells [4] [fold] | colonies containing neurons, astrocytes, and oligodendrocytes [5] |
| --- | --- | --- | --- | --- | --- | --- | --- | --- | --- |
| CC(C)(C)c1nc2c3ccc(F)cc3c3c(=O)[nH]ccc3c2[nH]1 [JAK Inhibitor, 2-(1,1-Dimethylethyl)-9-fluoro-3,6-dihydro-7H-benz[h]-imidaz[4,5-f]isoquinolin-7-one] | reduced the levels of phosphorylation | 448.5%±57.4 | retained normal morphology and antigenic profile of undifferentiated hES cells | significantly reduced p38 phosphorylation |  |  |  |  |  |
| Delta-4: soluble Notch ligand Delta-4 (1389-D4) from R&D |  |  |  |  | induced nucleostemin and SHH protein expression | High | High | 2.9±0.2 | generated significantly more of these colonies |
